Consider 27 molecules from patent publication US9790178B2, “Pyrrolidinyl urea, thiourea, guanidine and cyanoguanidine compounds as TrkA kinase inhibitors” (Array BioPharma Inc., priority 2012, dated 2017).

pIC50: −log10 of the molar value. Where only a bound is given, the exact number is not on record here.

T1 sequence (P04629 440-796 limits assumed): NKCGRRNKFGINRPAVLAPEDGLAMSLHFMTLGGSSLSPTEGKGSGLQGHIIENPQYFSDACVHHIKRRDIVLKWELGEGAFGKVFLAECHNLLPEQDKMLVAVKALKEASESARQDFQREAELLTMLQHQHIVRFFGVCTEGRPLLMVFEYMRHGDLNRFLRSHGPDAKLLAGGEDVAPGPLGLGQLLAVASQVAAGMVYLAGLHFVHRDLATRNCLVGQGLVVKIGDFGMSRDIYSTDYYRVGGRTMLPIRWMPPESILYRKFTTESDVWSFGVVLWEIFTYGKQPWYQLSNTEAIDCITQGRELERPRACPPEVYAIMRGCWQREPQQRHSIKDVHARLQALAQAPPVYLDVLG

The assay addresses T1, His-tagged recombinant human TrkA (Homo sapiens, UniProt P04629).
T1 construct: 6HIS tagged cytoplasmic domain from Invitrogen, Catalog No. PV3144; purchased Invitrogen PV3144
Briefly: TrkA LanthaScreen Eu Kinase Binding Assay. The note with it: averaged IC50 values; read-out: TrkA enzyme IC50. Here is the method: TrkA binding activity was determined in a TrkA LanthaScreen™ Eu Kinase Binding Assay. 5 nM His-tagged recombinant human TrkA (6HIS tagged cytoplasmic domain from Invitrogen, Catalog No. PV3144) was incubated with 4 nM Alexa-Fluor® Tracer 236 (Invitrogen Cat. No. PV5592), 2 nM biotinylated anti-His (Invitrogen Cat. No. PV6090), and 2 nM europium-labeled Streptavidin (Invitrogen Cat. No. PV5899), in buffer (25 mM MOPS, pH 7.5, 5 mM MgCl2, 0.005% Triton X-100). Three fold serial dilutions of compounds of the invention in DMSO were added to a final percentage of 2% DMSO. After 60-minute incubation at 22° C., the reaction was measured using the EnVision mutlimode plate reader (PerkinElmer) via TR-FRET dual wavelength detection at […]. The percent of control was calculated using a ratiometric emission factor. The IC50 values were determined by fitting a four parameter model to the percent of control data.
Table A provides averaged IC50 values for compounds of the invention when tested in the assay of Example A, where A represents an averaged IC50 value <100 nM; and B represents an averaged IC50 value from 100 to 1,000 nM.
For `COCCN1C[C@@H](NC(=O)Nc2c(-c3ccccc3)nc3c(C(F)(F)F)cccn23)[C@H](c2ccccc2)C1` (relative stereo) [Example 16, 1-((trans)-1-(2-methoxyethyl)-4-phenylpyrrolidin-3-yl)-3-(2-phenyl-8-(trifluoromethyl)imidazo [1,2-a]pyridin-3-yl)urea], the negative-log IC50 (pIC50) is > 7.00.
With `COCCN1C[C@@H](NC(=O)Nc2c(-c3ccccc3)nc3c(=O)n(C)ccn23)[C@H](c2ccc(F)c(F)c2)C1` [Example 24, 1-((3S,4R)-4-(3,4-difluorophenyl)-1-(2-methoxyethyl)pyrrolidin-3-yl)-3-(7-methyl-8-oxo-2-phenyl-7,8-dihydroimidazo[1,2-a]pyrazin-3-yl)urea] the figure was > 7.00.
Next, `COCCN1C[C@@H](NC(=O)Nc2c(-c3ccccc3)nc3sc(C)cn23)[C@H](c2ccccc2)C1` (relative stereo) [Example 5, 1-((trans)-1-(2-methoxyethyl)-4-phenylpyrrolidin-3-yl)-3-(2-methyl-6-phenylimidazo[2,1-b]thiazol-5-yl)urea]: 6.00 to 7.00; `COCCN1C[C@@H](NC(=O)Nc2cccc3c(Br)n[nH]c23)[C@H](c2ccccc2)C1` (relative stereo) [Example 3, 1-(3-bromo-1H-indazol-7-yl)-3-(trans-1-(2-methoxyethyl)-4-phenylpyrrolidin-3-yl)urea]: > 7.00.
With `COCCN1C[C@@H](NC(=O)Nc2c(-c3ccccc3)nc3ccccn23)[C@H](c2ccccc2)C1` (relative stereo) [Example 6, 1-((trans)-1-(2-methoxyethyl)-4-phenylpyrrolidin-3-yl)-3-(2-phenylimidazo[1,2-a]pyridin-3-yl)urea] the figure was > 7.00; with `COCCN1C[C@@H](NC(=O)Nc2cccc3c(-c4ccccc4)n[nH]c23)[C@H](c2ccccc2)C1` (relative stereo) [Example 4, 1-(trans-1-(2-methoxyethyl)-4-phenylpyrrolidin-3-yl)-3-(3-phenyl-1H-indazol-7-yl)urea], > 7.00.
With `COCCN1C[C@@H](NC(=O)Nc2c(-c3ccccc3)nc3c(C)nccn23)[C@H](c2ccccc2)C1` [Example 19, 1-((3S,4R)-1-(2-methoxyethyl)-4-phenylpyrrolidin-3-yl)-3-(8-methyl-2-phenylimidazo[1,2-a]pyrazin-3-yl)urea], the pIC50 was > 7.00.
Next, `COCCN1C[C@@H](NC(=O)Nc2c(-c3ccccc3)nc3ccc(F)cn23)[C@H](c2ccccc2)C1` (relative stereo) [Example 17, 1-(6-fluoro-2-phenylimidazo[1,2-a]pyridin-3-yl)-3-((trans)-1-(2-methoxyethyl)-4-phenylpyrrolidin-3-yl)urea]: > 7.00; `COCCN1C[C@@H](NC(=O)Nc2c(-c3ccccc3)nc3c(C)nccn23)[C@H](c2cc(F)cc(F)c2)C1` [Example 23, 1-((3S,4R)-4-(3,5-difluorophenyl)-1-(2-methoxyethyl)pyrrolidin-3-yl)-3-(8-methyl-2-phenylimidazo[1,2-a]pyrazin-3-yl)urea]: > 7.00; `COCCN1C[C@@H](NC(=O)Nc2c(-c3ccccc3)nc3c(Cl)cccn23)[C@H](c2ccccc2)C1` (relative stereo) [Example 14, 1-(8-chloro-2-phenylimidazo[1,2-a]pyridin-3-yl)-3-((trans)-1-(2-methoxyethyl)-4-phenylpyrrolidin-3-yl)urea]: > 7.00.
With `COCCN1C[C@@H](NC(=O)Nc2c(-c3ccccc3)nc3sccn23)[C@H](c2ccccc2)C1` (relative stereo) [Example 9, 1-((trans)-1-(2-methoxyethyl)-4-phenylpyrrolidin-3-yl)-3-(6-phenylimidazo[2,1-b]thiazol-5-yl)urea] the figure was > 7.00.
With `COCCN1C[C@@H](NC(=O)Nc2c(-c3ccccc3)nc3c(C)cccn23)[C@H](c2ccccc2)C1` (relative stereo) [Example 11, 1-((trans)-1-(2-methoxyethyl)-4-phenylpyrrolidin-3-yl)-3-(8-methyl-2-phenylimidazo[1,2-a]pyridin-3-yl)urea] the figure was > 7.00; with `COCCN1C[C@@H](NC(=O)Nc2cccc3cn[nH]c23)[C@H](c2ccccc2)C1` (relative stereo) [Example 1, 1-(1H-indazol-7-yl)-3-(trans-1-(2-methoxyethyl)-4-phenylpyrrolidin-3-yl)urea di-trifluoroacetate], 6.00 to 7.00; with `COCCN1C[C@@H](NC(=O)Nc2c(-c3ccccc3)nc3c(C)nccn23)[C@H](c2ccc(F)cc2)C1` [Example 27, 1-((3S,4R)-4-(4-fluorophenyl)-1-(2-methoxyethyl)pyrrolidin-3-yl)-3-(8-methyl-2-phenylimidazo[1,2-a]pyrazin-3-yl)urea], > 7.00.
On to `COCCN1C[C@@H](NC(=O)Nc2c(-c3ccccc3)nc3c(C)cccn23)[C@H](c2ccccc2)C1` [Example 15, 1-((3S,4R)-1-(2-methoxyethyl)-4-phenylpyrrolidin-3-yl)-3-(8-methyl-2-phenylimidazo[1,2-a]pyridin-3-yl)urea], for which the pIC50 was > 7.00.
With `COCCN1C[C@@H](NC(=O)Nc2c(-c3ccccc3)nc3ncccn23)[C@H](c2ccccc2)C1` (relative stereo) [Example 7, 1-((trans)-1-(2-methoxyethyl)-4-phenylpyrrolidin-3-yl)-3-(2-phenylimidazo[1,2-a]pyrimidin-3-yl)urea] the figure was > 7.00; with `COCCN1C[C@@H](NC(=O)Nc2c(-c3ccccc3)nc3c(=O)[nH]ccn23)[C@H](c2ccc(F)c(F)c2)C1` [Example 21, 1-((3S,4R)-4-(3,4-difluorophenyl)-1-(2-methoxyethyl)pyrrolidin-3-yl)-3-(8-oxo-2-phenyl-7,8-dihydroimidazo[1,2-a]pyrazin-3-yl)urea], > 7.00.
With `COCCN1C[C@@H](NC(=O)Nc2c(-c3ccccc3)nc3cnccn23)[C@H](c2ccccc2)C1` (relative stereo) [Example 10, 1-((trans)-1-(2-methoxyethyl)-4-phenylpyrrolidin-3-yl)-3-(2-phenylimidazo[1,2-a]pyrazin-3-yl)urea] the figure was > 7.00; with `COCCN1C[C@@H](NC(=O)Nc2c(-c3ccccc3)nc3c(OC)nccn23)[C@H](c2ccc(F)c(F)c2)C1` [Example 22, 1-((3S,4R)-4-(3,4-difluorophenyl)-1-(2-methoxyethyl)pyrrolidin-3-yl)-3-(8-methoxy-2-phenylimidazo[1,2-a]pyrazin-3-yl)urea], > 7.00.
With `COCCN1C[C@@H](NC(=O)Nc2c(-c3ccccc3)nc3cc(C)ccn23)[C@H](c2ccccc2)C1` (relative stereo) [Example 12, 1-((trans)-1-(2-methoxyethyl)-4-phenylpyrrolidin-3-yl)-3-(7-methyl-2-phenylimidazo[1,2-a]pyridin-3-yl)urea], the pIC50 is > 7.00.
With `COCCN1C[C@@H](NC(=O)Nc2c(-c3ccccc3)nc3ccc(C)cn23)[C@H](c2ccccc2)C1` (relative stereo) [Example 13, 1-((trans)-1-(2-methoxyethyl)-4-phenylpyrrolidin-3-yl)-3-(6-methyl-2-phenylimidazo[1,2-a]pyridin-3-yl)urea] the figure was 6.00 to 7.00; with `COCCN1C[C@@H](NC(=O)Nc2c(-c3ccccc3)nc3scnn23)[C@H](c2ccccc2)C1` (relative stereo) [Example 8, 1-((trans)-1-(2-methoxyethyl)-4-phenylpyrrolidin-3-yl)-3-(6-phenylimidazo[2,1-b][1,3,4]thiadiazol-5-yl)urea], > 7.00.
With `CCn1ccn2c(NC(=O)N[C@@H]3CN(CCOC)C[C@H]3c3ccc(F)c(F)c3)c(-c3ccccc3)nc2c1=O` [Example 25, 1-((3S,4R)-4-(3,4-difluorophenyl)-1-(2-methoxyethyl)pyrrolidin-3-yl)-3-(7-ethyl-8-oxo-2-phenyl-7,8-dihydroimidazo[1,2-a]pyrazin-3-yl)urea] the figure was > 7.00; with `COCCN1C[C@@H](NC(=O)Nc2c(-c3ccccc3)[nH]c3ccccc23)[C@H](c2ccccc2)C1` (relative stereo) [Example 26, 1-((trans)-1-(2-methoxyethyl)-4-phenylpyrrolidin-3-yl)-3-(2-phenyl-1H-indol-3-yl)urea], > 7.00; with `COCCN1C[C@@H](NC(=O)Nc2c(-c3ccccc3)nc3c(F)cccn23)[C@H](c2ccccc2)C1` [Example 18, 1-(8-fluoro-2-phenylimidazo[1,2-a]pyridin-3-yl)-3-((3S,4R)-1-(2-methoxyethyl)-4-phenylpyrrolidin-3-yl)urea], > 7.00.
With `COCCN1C[C@@H](NC(=O)NC2=C(c3ccccc3)C(=O)c3ccccc32)[C@H](c2ccc(F)c(F)c2)C1` [Example 28, 1-((3S,4R)-4-(3,4-difluorophenyl)-1-(2-methoxyethyl)pyrrolidin-3-yl)-3-(1-oxo-2-phenyl-1H-inden-3-yl)urea] the figure was 6.00 to 7.00; with `COCCN1C[C@@H](NC(=O)Nc2ccc(C)c3cn[nH]c23)[C@H](c2ccccc2)C1` (relative stereo) [Example 2, 1-(trans-1-(2-methoxyethyl)-4-phenylpyrrolidin-3-yl)-3-(4-methyl-1H-indazol-7-yl)urea di-trifluoroacetate], 6.00 to 7.00.

What is called pIC50 is −log10 of the IC50, conventionally taken in molar units.
